# ± gives the standard deviation of the averaged measurements.
# What was measured:
# [1] = compound: CCN(CC)CCCCNc1ncc2cc(-c3cc(OC)cc(OC)c3)c(NC(=O)NC(C)(C)C)nc2n1; experiment: surviving fraction relative to DMSO-only wells; higher = less growth inhibition; settings: exposure time: 5 days
# How it was run: (§1)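 Five days of continuous inhibitor exposure, at 0.5, 1, 5, 10, 50, 100, 500 and 1000 nM, followed a 24-hour period after log-phase tumour cell lines were seeded at 250–500 cells per well in 384-well plates. Surviving fraction was derived from CellTiter-Glo luminescence relative to the median of DMSO-only wells. Plates were read after 10 minutes at room temperature, and lines screened three times were kept only if replicate Pearson r >0.7 and median Z' >0.3.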
# 2-METHOXYESTRADIOL = compound: COc1cc2c(cc1O)CC[C@@H]1[C@@H]2CC[C@]2(C)[C@@H](O)CC[C@@H]12 [2-METHOXYESTRADIOL]; experiment: as above; settings: exposure time: 5 days
# How it was run: as §1
Test System,surviving fraction ([1]; 0.5 nM),surviving fraction ([1]; 1 nM),surviving fraction ([1]; 5 nM),surviving fraction ([1]; 10 nM),surviving fraction ([1]; 50 nM),surviving fraction ([1]; 100 nM),surviving fraction ([1]; 500 nM),surviving fraction ([1]; 1000 nM),surviving fraction (2-METHOXYESTRADIOL; 0.5 nM),surviving fraction (2-METHOXYESTRADIOL; 1 nM),surviving fraction (2-METHOXYESTRADIOL; 5 nM),surviving fraction (2-METHOXYESTRADIOL; 10 nM),surviving fraction (2-METHOXYESTRADIOL; 50 nM),surviving fraction (2-METHOXYESTRADIOL; 100 nM),surviving fraction (2-METHOXYESTRADIOL; 500 nM),surviving fraction (2-METHOXYESTRADIOL; 1000 nM)
MDAMB134 BREAST,1 ± 0.079,0.807 ± 0.069,0.863 ± 0.03,0.977 ± 0.23,0.872 ± 0.073,0.902 ± 0.069,0.829 ± 0.064,0.873 ± 0.05,0.832 ± 0.24,0.884 ± 0.12,0.777 ± 0.041,0.916 ± 0.18,0.755 ± 0.097,0.717 ± 0.12,0.56 ± 0.0085,0.619 ± 0.15
MDAMB157 BREAST,0.85 ± 0.13,0.935 ± 0.05,0.898 ± 0.031,0.993 ± 0.026,0.856 ± 0.03,0.68 ± 0.045,0.467 ± 0.033,0.515 ± 0.0087,0.873 ± 0.086,0.947 ± 0.022,0.935 ± 0.05,0.983 ± 0.12,0.959 ± 0.012,0.932 ± 0.013,0.76 ± 0.055,0.31 ± 0.066
MDAMB231 BREAST,0.974 ± 0.03,0.975 ± 0.026,0.9813 ± 0.0094,1.01 ± 0.02,0.995 ± 0.026,1.01 ± 0.034,1.01 ± 0.035,0.983 ± 0.022,0.964 ± 0.0098,0.949 ± 0.011,0.9675 ± 0.0069,0.963 ± 0.018,0.983 ± 0.027,0.989 ± 0.027,0.545 ± 0.025,0.258 ± 0.012
MDAMB361 BREAST,0.945 ± 0.025,0.917 ± 0.056,0.855 ± 0.092,0.839 ± 0.051,0.955 ± 0.097,0.846 ± 0.034,0.937 ± 0.065,0.859 ± 0.025,0.843 ± 0.082,0.827 ± 0.11,0.865 ± 0.046,0.829 ± 0.11,0.788 ± 0.043,0.8 ± 0.083,0.666 ± 0.014,0.701 ± 0.081
MDAMB436 BREAST,0.974 ± 0.053,0.802 ± 0.074,0.912 ± 0.026,0.911 ± 0.041,0.943 ± 0.1,0.974 ± 0.033,0.911 ± 0.032,0.878 ± 0.032,0.944 ± 0.012,0.951 ± 0.19,1 ± 0.016,0.953 ± 0.065,0.956 ± 0.065,0.971 ± 0.045,0.779 ± 0.12,0.62 ± 0.079
MDAMB453 BREAST,0.981 ± 0.029,1.03 ± 0.032,1.05 ± 0.058,1.05 ± 0.043,1.03 ± 0.082,1.04 ± 0.09,1.07 ± 0.033,0.814 ± 0.053,1.04 ± 0.059,0.995 ± 0.032,1.02 ± 0.079,1.02 ± 0.037,1.08 ± 0.037,1.05 ± 0.048,0.511 ± 0.072,0.257 ± 0.014
MDAMB468 BREAST,0.929 ± 0.043,0.959 ± 0.06,0.996 ± 0.005,0.985 ± 0.003,0.975 ± 0.055,1.1 ± 0.033,0.983 ± 0.033,0.956 ± 0.021,0.994 ± 0.12,1.08 ± 0.056,1.03 ± 0.053,1.13 ± 0.072,1.09 ± 0.055,1.15 ± 0.065,1.01 ± 0.081,0.99 ± 0.064
MFM223 BREAST,1.02 ± 0.04,1.1 ± 0.022,0.982 ± 0.1,0.823 ± 0.089,0.361 ± 0.029,0.277 ± 0.019,0.282 ± 0.026,0.258 ± 0.012,1.11 ± 0.1,1.11 ± 0.062,1.1 ± 0.093,1.17 ± 0.35,1.06 ± 0.034,0.973 ± 0.026,0.384 ± 0.057,0.16 ± 0.032
MG63 BONE,0.9463 ± 0.0067,0.983 ± 0.012,0.998 ± 0.013,0.965 ± 0.016,0.8687 ± 0.0035,0.771 ± 0.013,0.6363 ± 0.0049,0.641 ± 0.016,0.991 ± 0.015,1.008 ± 0.0075,1.02 ± 0.014,1.01 ± 0.018,1.04 ± 0.029,1.05 ± 0.021,0.971 ± 0.034,0.861 ± 0.03
MHM BONE,0.991 ± 0.026,0.993 ± 0.014,0.982 ± 0.023,1.001 ± 0.0095,0.964 ± 0.02,0.915 ± 0.029,0.7063 ± 0.007,0.664 ± 0.017,1.02 ± 0.035,1.01 ± 0.033,1.04 ± 0.049,1.03 ± 0.05,1.04 ± 0.029,1.03 ± 0.045,0.975 ± 0.015,0.673 ± 0.048

# — the supplement of paper PMC6045584
